From patent US20060094783A1 (Tava Pharmaceutical Industries, Ltd., priority 1990, published 2006)
Where a name gives a salt, the structure may show the parent alone. Read-outs that look alike come from different tables or passages of the source.

Legend:
MAO-A [1] = molecular target: T1, MAO-A (Rattus norvegicus, UniProt P21396); experiment: Rat brain MAO inhibition by propargylamines (Table IA), A form; assay type: biochemical; settings: between the two epimers
T1 construct: MAO activity determined in brain and liver; from tissue; host or cells: brain and liver of male Sprague-Dawley-derived rats
T1 sequence (P21396 1-526): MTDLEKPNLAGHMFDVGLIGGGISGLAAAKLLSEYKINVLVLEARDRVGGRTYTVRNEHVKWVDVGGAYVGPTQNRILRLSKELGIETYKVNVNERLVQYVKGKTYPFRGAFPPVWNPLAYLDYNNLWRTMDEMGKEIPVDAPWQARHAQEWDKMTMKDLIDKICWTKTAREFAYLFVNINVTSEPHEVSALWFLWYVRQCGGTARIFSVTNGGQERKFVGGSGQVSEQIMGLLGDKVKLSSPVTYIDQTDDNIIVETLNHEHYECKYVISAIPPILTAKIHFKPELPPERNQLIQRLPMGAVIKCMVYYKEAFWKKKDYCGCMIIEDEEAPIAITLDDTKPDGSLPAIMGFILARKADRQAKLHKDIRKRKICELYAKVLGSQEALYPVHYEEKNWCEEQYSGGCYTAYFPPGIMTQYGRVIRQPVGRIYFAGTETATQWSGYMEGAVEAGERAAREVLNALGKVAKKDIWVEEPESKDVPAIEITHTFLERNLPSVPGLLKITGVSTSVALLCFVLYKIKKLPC

[2] = tested on: maximal electroshock seizures in rats; experiment: Maximal electroshock test (MES test) in rats; assay type: in vivo, rat; settings: p.o., 50 mg/kg
Text: (§1) The MES test is a classical model to indicate efficacy for partial and generalized seizures in humans. The agents' mechanism of action is via their ability to prevent the spread of seizures. Some agents, however, that prevent seizure spread have the side effect of lowering seizure threshold. These agents therefore have both proconvulsive and anticonvulsive side effects.

guinea-pig ileum [3] = experiment: Antagonism of bethanechol-induced contractions of guinea pig ileum in presence of 400 μM PAI HCl enantiomer; settings: 400 μM enantiomer
guinea-pig ileum [4] = experiment: Antagonism of bethanechol-induced (fixed dose) contractions of guinea-pig ileum; settings: bethanechol 0.8 μM
rabbit jejunum = experiment: Tyramine potentiation in isolated jejunum preparation
Protocol: Peripheral effects of the hydrochloride salts of the enantiomers of PAI were determined in isolated rabbit or guinea-pig small intestine. These observations provide useful information on their relative peripheral side effects in humans. The first point of contact of the subject with an orally administered drug is the gastrointestinal tract where concentrations of the drug are much higher than after absorption and distribution. In the case of PAI hydrochloride (Mw=208), a 10 mg oral dose contained in a liquid volume of about 100 ml would be equivalent to a concentration of about 0.5 mM. In contrast, the therapeutic plasma concentration of (R)-PAI hydrochloride is in the nanomolar range.

guinea-pig ileum [5] = experiment: Antagonism of histamine-induced contractions of guinea-pig ileum; settings: histamine 40 nM
[6] = tested on: maximal electroshock seizures in mice; experiment: Maximal electroshock test (MES test) in mice; assay type: in vivo, mouse; settings: i.p.
Text: as §1

MAO [7] = settings: rat liver homogenate; cited from earlier work
[8] = tested on: MPTP-induced striatal DA and DOPAC depletions in mice; experiment: Suppression of MPTP-induced dopaminergic toxicity (striatal DA and DOPAC); assay type: in vivo, mouse; settings: PAI […] i.p., deprenyl 5 mg/kg i.p., 5 days
MAO [9] = settings: inhibiting oxidative deamination of tyramine, rat brain homogenate; cited from earlier work
MAO-B [10] = molecular target: T2, MAO-B (Rattus norvegicus, UniProt P19643); experiment: Inhibition of MAO activity in vivo, acute treatment, MAO-B; set-up: in a rat brain preparation of MAO; host or cells: rat brain preparation; settings: for IC-50 MAO-B: I.P., 1 h after dose
T2 sequence (P19643 1-520): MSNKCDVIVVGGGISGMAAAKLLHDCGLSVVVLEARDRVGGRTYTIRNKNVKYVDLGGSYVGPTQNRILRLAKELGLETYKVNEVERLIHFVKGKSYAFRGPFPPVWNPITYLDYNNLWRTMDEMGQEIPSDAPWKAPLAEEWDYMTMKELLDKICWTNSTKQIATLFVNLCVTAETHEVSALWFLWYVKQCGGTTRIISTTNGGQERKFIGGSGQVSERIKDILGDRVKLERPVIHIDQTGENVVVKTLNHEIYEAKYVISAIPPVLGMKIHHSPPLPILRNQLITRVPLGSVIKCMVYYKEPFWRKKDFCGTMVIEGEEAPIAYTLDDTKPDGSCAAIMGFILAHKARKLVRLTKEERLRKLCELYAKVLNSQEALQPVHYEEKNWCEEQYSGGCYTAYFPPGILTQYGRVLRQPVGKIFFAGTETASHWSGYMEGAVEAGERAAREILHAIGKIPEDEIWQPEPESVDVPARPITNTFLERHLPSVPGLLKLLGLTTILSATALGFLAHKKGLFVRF

MAO-A [11] = molecular target: T1, MAO-A; experiment: Inhibition of MAO activity in vivo, acute treatment, MAO-A; settings: for IC-50 MAO-A: rat
MAO-B [12] = molecular target: T2, MAO-B; settings: rat whole brain, 1 mg/kg i.p. single dose
Protocol: Activity of MAO-B was determined in whole brain tissues as described hereinabove.

MAO-B [13] = molecular target: T2, MAO-B; experiment: Inhibition of MAO activity in vitro, rat brain homogenate, PEA substrate; assay type: biochemical; set-up: in a rat brain preparation of MAO; host or cells: rat brain preparation
Protocol: The MAO enzyme source was a homogenate of rat brain in 0.3M sucrose, which was centrifuged at 600 g for 15 minutes. […] Substrate concentrations used were 50 uM (PEA) and 1 mM (5-HT). In the case of PEA, enzyme concentration was chosen so that not more than 10% of the substrate was metabolized during the course of the reaction. […] The column was washed with 1.5 ml water, the eluates pooled and the radioactive content determined by liquid scintillation spectrometry. Since the amine substrates are totally retained on the column, radioactivity in the eluate indicates the production of neutral and acidic metabolites formed as a result of MAO activity. Activity of MAO in the sample was expressed as a percentage of control activity in the absence of inhibitors after subtraction of appropriate blank values. The activity determined using PEA as substrate is referred to as MAO-B, and that determined using 5-HT as MAO-A.

[14] = tested on: tyramine pressor response in conscious rats; experiment: Potentiation of tyramine pressor effect in conscious rats; assay type: in vivo, rat
Protocol: The left carotid artery and jugular vein were cannulated with fine polytene tubing (artery) or fine silicone rubber tubing connected to polyethylene tubing (vein), the distal end of which was brought under the skin to an anchor point behind the neck. The tubing was filled with heparinized saline solution, and plugged with a fine steel rod. The animals were treated with 2. mg chloramphenicol by intramuscular injection and allowed to recover from the operation overnight. The following day, the rats were placed in a high-walled container permitting free movement. […] Following an equilibration period of 30 to 40 minutes, tyramine injections (50 or 100 μg) were given, and blood pressure-responses recorded. An interval of at least 15 minutes was maintained between injections after return of blood pressure to control values. Control pressor responses were established, then one of the drugs was injected intraperitoneally, and tyramine responses were repeated over the next 4 hours. The area under the blood pressure response curve was estimated, and the ratio of this area after treatment to before treatment and to 1 to 3 hours after injection of the compounds, was determined using the average of 3 to 4 values obtained in the control period.

[15] = tested on: passive avoidance response in young rats; experiment: Passive avoidance test in young rats (memory); assay type: in vivo, rat
Text: The effect of R(+)-PAI and S(−)-PAI on the improvement or restoration of memory was investigated in the passive avoidance test. If the drug is effective, it increases the latency of response to enter a dark compartment or chamber where an electroshock has been experienced earlier by the rat being tested. The latency of the maximal response is 300 seconds.

[16] = tested on: Metrazol seizure threshold in mice; settings: Kupferberg 1989; cited from earlier work
[17] = pretreatment 1 h before MPTP 30 mg/kg s.c.

C#CCNC1CCCc2ccccc21 (racemic) [Example 1-PAT, N-propargyl-1-aminotetralin]
Relative potency A (+/− or R/S) (MAO-A [1]): 4

C#CCN[C@H]1CCc2ccccc21 [(S)-PAI HCl, S-(−)-N-Propargyl-1-aminoindan hydrochloride]
animals protected from seizures [2]: Four out of four
gram-tension (guinea-pig ileum [3]; bethanechol 0.8 μM): 0 gram-tension
gram-tension (guinea-pig ileum [3]; bethanechol 2 μM): 0 gram-tension
gram-tension (guinea-pig ileum [3]; bethanechol 4 μM): 0 gram-tension
gram-tension (guinea-pig ileum [3]; bethanechol 8 μM): 0.6 gram-tension
gram-tension (guinea-pig ileum [3]; bethanechol 40 μM): 1.7 gram-tension
Percent relaxation (guinea-pig ileum [4]; PAI concentration 20 μM): 40-50
Percent relaxation (guinea-pig ileum [4]; PAI concentration 60 μM): 60-70
Percent relaxation (guinea-pig ileum [4]; PAI concentration 100 μM): 100
Percent relaxation (guinea-pig ileum [4]; PAI concentration 300 μM): 100
Percent relaxation (rabbit jejunum; PAI HCl enantiomer alone, 0.2-4.0 μM): 0
Percent relaxation (rabbit jejunum; tyramine 40 μM after 0.2 μM PAI HCl enantiomer): 0
Percent relaxation (rabbit jejunum; tyramine 40 μM after 2 μM PAI HCl enantiomer): 35
Percent relaxation (rabbit jejunum; tyramine 40 μM after 40 μM PAI HCl enantiomer): 33-50
Percent relaxation (guinea-pig ileum [5]; PAI concentration 2 μM): 11
Percent relaxation (guinea-pig ileum [5]; PAI concentration 4 μM): 15
Percent relaxation (guinea-pig ileum [5]; PAI concentration 10 μM): 30
Percent relaxation (guinea-pig ileum [5]; PAI concentration 20 μM): 20
Percent relaxation (guinea-pig ileum [5]; PAI concentration 30 μM): 33
Percent relaxation (guinea-pig ileum [5]; PAI concentration 40 μM): 36
Percent relaxation (guinea-pig ileum [5]; PAI concentration 100 μM): 71
Percent relaxation (guinea-pig ileum [5]; PAI concentration 200 μM): 90
Percent relaxation (guinea-pig ileum [5]; PAI concentration 400 μM): 98
Percent relaxation (guinea-pig ileum [5]; PAI concentration 1000 μM): 100
ED50 anticonvulsant activity [6]: 57 mg/kg

C#CCN(C)[C@H](C)Cc1ccccc1 [DEPRENYL R, reference compound]
times as potent as the S enantiomer (MAO [7]): 15 times
striatal DA ([8]; drug alone): 170.6 ± 7.1 ng/mg protein
striatal DOPAC ([8]; drug alone): 5.6 ± 0.3 ng/mg protein
striatal DA [8, 17]: 197.0 ± 8.0 ng/mg protein
striatal DOPAC [8, 17]: 6.4 ± 0.5 ng/mg protein
times more potent than the S-(+) enantiomer (MAO [9]): 500 times

C#CCN(C)C1CCCc2ccccc21 (stereo not drawn) [Example 2-MPAI, N-Methyl-N-propargyl-1-aminotetralin]
Relative potency A (+/− or R/S) (MAO-A [1]): 3

C#CCN[C@@H]1CCc2ccccc21 [R(+)PAI, R(+)-N-propargyl-1-aminoindan]
inhibition of MAO-B in brain and liver (MAO-B [10]; 1 mg/kg): complete inhibition
IC-50 MAO-B (MAO-B [10]; brain): 0.07 mg/kg
IC-50 MAO-B (MAO-B [10]; liver): 0.06 mg/kg
inhibition of MAO-A (MAO-A [11]; rat brain, 0.5 mg/kg oral): no detectable inhibition
IC-50 MAO-A (MAO-A [11]; I.P., brain, 1 h after dose): 1.2 mg/kg
IC-50 MAO-A (MAO-A [11]; I.P., liver, 1 h after dose): 5 mg/kg
IC-50 MAO-A (MAO-A [11]; P.O., brain, 2 h after dose): >5 mg/kg
IC-50 MAO-A (MAO-A [11]; P.O., liver, 2 h after dose): >5 mg/kg
time of maximal inhibition of MAO-B after injection (MAO-B [12]): 6 h
times more active for inhibition of MAO-B than MAO-A (MAO-B [13]): 29 times
times more active than S(−)PAI as inhibitor of MAO-B (MAO-B [13]): ~7,000 times
times more active than S(−)PAI as inhibitor of MAO-B (MAO-B [13]; listed as R(+)-PAI): about 7000 times
striatal DOPAC [8, 17]: 6.0 ± 0.3 ng/mg protein
potentiation of tyramine pressor response (in words) ([14]; 1 mg/kg): no significant potentiation
potentiation of tyramine pressor response (in words) ([14]; 5 mg/kg): significant potentiation
percent increase of latency After Electroshock vs corresponding group ([15]; Protocol A, anoxia-lesioned rats): 19%
percent increase of latency After Electroshock vs corresponding group ([15]; Protocol A, control rats): +9%
percent increase of latency After Electroshock vs corresponding group ([15]; Protocol B, anoxia-lesioned rats): +15%
percent increase of latency After Electroshock vs corresponding group ([15]; Protocol B, control rats): +23%

NC(=O)N1c2ccccc2C=Cc2ccccc21 [carbamazepine]
effect on time to first focal seizure and onset of clonus (proconvulsive activity) [16]: do not show this effect

O=C1NC(=O)C(c2ccccc2)(c2ccccc2)N1 [phenytoin]
effect on time to first focal seizure and onset of clonus (proconvulsive activity) [16]: do not show this effect
